In ChEMBL document CHEMBL3588797, “Tetrazole activity against Candida albicans. The role of KEX2 mutations in the sensitivity to (±)-1-[5-(2-chlorophenyl)-2H-tetrazol-2-yl]propan-2-yl acetate” (Bioorg Med Chem Lett, 2015):
In brackets after ≈: the same amount, converted by molar mass. Activity calls are given as the source filed them. No cut-off for these calls is given here.

Legend:
[1] = test system: Candida albicans; assay: Antifungal activity against Candida albicans 90028 ATCC assessed as inhibition of growth at 16 ug/ml after 48 hrs relative to control; format: functional
[2] = test system: Candida albicans; assay: Antifungal activity against Candida albicans 90028 ATCC assessed as inhibition of growth at 8 ug/ml after 48 hrs relative to control; format: functional
[3] = test system: Candida albicans; assay: Antifungal activity against Candida albicans 90028 ATCC assessed as inhibition of growth at 4 ug/ml after 48 hrs relative to control; format: functional
[4] = test system: Candida albicans; assay: Antifungal activity against Candida albicans 90028 ATCC assessed as inhibition of growth at 2 ug/ml after 48 hrs relative to control; format: functional
[5] = test system: Candida albicans; assay: Antifungal activity against Candida albicans 90028 ATCC assessed as inhibition of growth at 1 ug/ml after 48 hrs relative to control; format: functional
[6] = test system: Candida albicans; assay: Antifungal activity against Candida albicans 90028 ATCC assessed as inhibition of growth at 0.5 ug/ml after 48 hrs relative to control; format: functional
[7] = test system: Candida albicans; assay: Antifungal activity against Candida albicans 90028 ATCC assessed as inhibition of growth at 0.25 ug/ml after 48 hrs relative to control; format: functional
[8] = test system: Candida albicans; assay: Antifungal activity against Candida albicans 90028 ATCC assessed as inhibition of growth at 0.12 ug/ml after 48 hrs relative to control; format: functional
[9] = test system: Candida albicans; assay: Antifungal activity against Candida albicans 90028 ATCC assessed as inhibition of growth at 0.06 ug/ml after 48 hrs relative to control; format: functional
[10] = test system: Candida albicans; assay: Antifungal activity against Candida albicans 90028 ATCC assessed as inhibition of growth at 0.03 ug/ml after 48 hrs relative to control; format: functional
[11] = test system: Candida albicans; assay: Antifungal activity against Candida albicans 90028 ATCC assessed as decrease in turbidity after 48 hrs relative to control; format: functional
[12] = test system: Candida albicans; assay: Antifungal activity against Candida albicans 90028 ATCC assessed as reduction in 99% growth after 48 hrs relative to control; format: functional
[13] = Cytotoxicity against african green monkey Vero cells assessed as reduction in cell viability at 64 to 256 ug/mL after 6 hrs by XTT assay; format: cell-based; conditions: chlorocebus sabaeus, read-out: INH
[14] = Cytotoxicity against african green monkey Vero cells assessed as reduction in cell viability at 4 to 32 ug/mL after 6 hrs by XTT assay; format: cell-based; conditions: chlorocebus sabaeus, read-out: INH
[15] = test system: Vero; assay: Cytotoxicity against african green monkey Vero cells assessed as reduction in cell viability at 2 to 0.125 ug/mL after 6 hrs by XTT assay; format: cell-based; conditions: chlorocebus sabaeus
[16] = test system: Candida albicans; assay: Inhibition of Wild type Candida albicans SC5314 adhesion to the Caco-2 cell line; format: functional
[17] = test system: Candida albicans; assay: Inhibition of Candida albicans kex delta CNA1 mutant adhesion to the Caco-2 cell line; format: functional, organism-based
[18] = test system: Candida albicans; assay: Inhibition of Candida albicans with loss of one copy KEX2 allele and both copies of URA3 CNA2 mutant adhesion to the Caco-2 cell line; format: functional
[19] = test system: Candida albicans; assay: Inhibition of Candida albicans with loss of both copies KEX2 allele and both copies of URA3 CNA4 mutant adhesion to the Caco-2 cell line; format: functional, organism-based
[20] = test system: Candida albicans; assay: Inhibition of Candida albicans 1008 with trp1/kex2 delta mutant adhesion to the Caco-2 cell line; format: functional
[21] = test system: Candida albicans; assay: Inhibition of Candida albicans 1008 adhesion to the Caco-2 cell line; format: functional
[22] = test system: Nakaseomyces glabratus; assay: Inhibition of Candida glabrate 1010 with kex2 delta mutant and functional TRP1 adhesion to the Caco-2 cell line; format: organism-based
[23] = test system: Candida albicans; assay: Inhibition of Candida albicans bioflim formation during Caco2 cell invasion assessed as sessile growth at 16 ug/ml after 18 hrs by confocal laser scanning microscopy; format: functional, organism-based; conditions: Caco-2
[24] = test system: Candida albicans; assay: Inhibition of Candida albicans bioflim formation during Caco2 cell invasion assessed as lack of hyphea at 1 ug/ml after 18 hrs by confocal laser scanning microscopy; format: functional, organism-based; conditions: Caco-2
[25] = test system: Candida albicans; assay: Inhibition of wild type Candida albicans adherence to Caco2 cells at 16 ug/ml after 18 hrs; format: functional; conditions: Caco-2, 18 h

| MIC [11] [µg/mL] | SMILES | inhibition at 16 µg/mL [1] [%] | inhibition at 8 µg/mL [2] [%] | inhibition at 4 µg/mL [3] [%] | inhibition at 2 µg/mL [4] [%] | inhibition at 1 µg/mL [5] [%] | inhibition at 0.5 µg/mL [6] [%] | inhibition at 0.25 µg/mL [7] [%] | inhibition at 0.12 µg/mL [8] [%] | inhibition at 0.06 µg/mL [9] [%] | inhibition at 0.03 µg/mL [10] [%] | further results |
| --- | --- | --- | --- | --- | --- | --- | --- | --- | --- | --- | --- | --- |
| 0.5 (≈ 1.92 µM) | CC(=O)OC(C)Cn1nnc(-c2ccc(C)cc2)n1 (racemic) | 99 | 99 | 99.1 | 99 | 99.1 | 99 | 98.9 | 99 | 98.9 | 98.7 |  |
|  | C[C@@H]1[C@H](O)[C@@H](C)/C=C/C=C/C=C/C=C/C=C/C=C/C=C/[C@H](O[C@@H]2O[C@H](C)[C@@H](O)[C@H](N)[C@@H]2O)C[C@@H]2O[C@](O)(C[C@@H](O)C[C@@H](O)[C@H](O)CC[C@@H](O)C[C@@H](O)CC(=O)O[C@H]1C)C[C@H](O)[C@H]2C(=O)O [AMPHOTERICIN B] |  |  |  |  |  | 100 |  |  |  |  |  |
| 4 (≈ 14.6 µM) | CC(=O)OC(C)CCn1nnc(-c2ccc(C)cc2)n1 (racemic) | 98.9 | 99 | 99 | 99 | 98.9 | 98.9 | 99 | 98.9 | 98.9 | 98.9 |  |
| 4 (≈ 15.4 µM) | CC(=O)OC(C)CCn1nnc(-c2ccccc2)n1 (racemic) | 98.8 | 99 | 99 | 98.9 | 98.9 | 98.9 | 99 | 98.9 | 98.9 | 98.9 |  |
| 8 (≈ 31.7 µM) | CC(O)CCn1nnc(-c2ccccc2Cl)n1 (racemic) | 99 | 99 | 99 | 98.9 | 99 | 99 | 98.9 | 99 | 98.9 | 98.8 |  |
| 4 (≈ 17.2 µM) | Cc1ccc(-c2nnn(CCC(C)O)n2)cc1 (racemic) | 98.9 | 98.9 | 99 | 98.9 | 98.9 | 98.9 | 98.9 | 98.9 | 99 | 98.9 |  |
|  | CC(O)Cn1nnc(-c2ccccc2)n1 (racemic) | 98.8 | 98.9 | 98.9 | 98.8 | 98.8 | 98.7 | 98.7 | 98.7 | 98.8 | 98.8 |  |
|  | Cc1ccc(-c2nnn(CC(C)O)n2)cc1 (racemic) | 98.8 | 98.9 | 98.9 | 98.9 | 98.8 | 98.9 | 99 | 98.9 | 99 | 98.9 |  |
| 4 (≈ 13.6 µM) | CC(=O)OC(C)CCn1nnc(-c2ccccc2Cl)n1 (racemic) | 98.9 | 99 | 99 | 98.9 | 98.9 | 98.9 | 98.9 | 98.9 | 98.9 | 98.9 |  |
| 0.125 (≈ 0.524 µM) | CC(O)Cn1nnc(-c2ccccc2Cl)n1 (racemic) | 98.9 | 99 | 99 | 98.9 | 99 | 99.1 | 99 | 99 | 99 | 98.9 |  |
|  | CC(=O)OC(C)Cn1nnc(-c2ccccc2Cl)n1 (racemic) | 99 | 99 | 99 | 99 | 99 | 99 | 99 | 99 | 98.9 | 98.9 | MFC [12]: 0.0313 µg/mL (≈ 0.112 µM); cytotoxicity at 6 h [13]: 13%; cytotoxicity at 6 h [14]: 4%; Activity [15]: Non-toxic; inhibition (INH) [16]: 86%; inhibition [17]: inactive; inhibition (INH) [18]: 91%; inhibition [19]: inactive; inhibition (INH) [20]: 82.89%; inhibition (INH) [21]: 42.3%; inhibition [22]: inactive; Activity [23]: inactive; inhibition [24]: inactive; inhibition at 16 µg/mL [25]: 86% |
| 0.125 (≈ 0.573 µM) | CC(O)CCn1nnc(-c2ccccc2)n1 (racemic) | 98.9 | 98.9 | 99 | 98.9 | 99 | 99 | 99 | 99 | 98.9 | 98.8 |  |
